Measurements as given in paper PMC9792171, “Design and synthesis of new thiazolidinone/uracil derivatives as antiproliferative agents targeting EGFR and/or BRAF^V600E” (Frontiers in Chemistry, 2022).

Columns and labels:
[1] = test system: A-549 (epithelial cancer cell line); assay: Antiproliferative MTT assay, A-549; assay type: cell-based; details: Homo sapiens, A549; A-549, MTT; read-out: Antiproliferative activity IC50 ± SEM (nM) A-549
Description: (§1) Using the MTT assay ([Abdelrahman et al., 2017]; [El-Sherief et al., 2018]) and doxorubicin as the reference drug, 3a-f and 5a-l were tested for antiproliferative activity against four human cancer cell lines: Panc-1 (pancreas cancer cell line), MCF-7 (breast cancer cell line), HT-29 (colon cancer cell line), and A-549 (epithelial cancer cell line).
(§2) To explore the antiproliferative potential of compounds MTT assay was performed according to previously reported procedure (El-Sherief, H.A.M., et al., 2018; Abdelrahman, M. H., et al., 2017) using different cell lines to explore the antiproliferative potential of compounds propidium iodide fluorescence assay was performed using different cell lines. To calculate the total nuclear DNA, a fluorescent dye (propidium iodide, PI) is used which can attach to the DNA, thus offering a quick and precise technique. PI cannot pass through the cell membrane and its signal intensity can be considered as directly proportional to quantity of cellular DNA. Cells whose cell membranes are damaged or have changed permeability are counted as dead ones. The assay was performed by seeding the cells of different cell lines at a density of 3000-7500 cells/well (in 200µl medium) in culture plates followed by incubation for 24h at 37 °C in humidified 5% CO2/95% air atmospheric conditions. The medium was removed; the compounds were added to the plates at 10 µM concentrations (in 0.1% DMSO) in triplicates, followed by incubation for 48 h. DMSO (0.1%) was used as control. After incubation, medium was removed followed by the addition of PI (25 µl, 50µg/mL in water/medium) to each well of the plates. At -80 °C, the plates were allowed to freeze for 24 h, followed by thawing at 25 °C. A fluorometer (Polar-Star BMG Tech) was used to record the readings at excitation and emission wavelengths of 530 and 620 nm for each well. The percentage cytotoxicity of compounds was calculated using the following formula: […]

[2] = test system: Panc-1 (pancreas cancer cell line); assay: Antiproliferative MTT assay, Panc-1; assay type: cell-based; details: Homo sapiens; Panc-1, MTT; read-out: Antiproliferative activity IC50 ± SEM (nM) Panc-1
Description: as §1, §2

[3] = test system: HT-29 (colon cancer cell line); assay: Antiproliferative MTT assay, HT-29; assay type: cell-based; details: Homo sapiens; HT-29, MTT; read-out: Antiproliferative activity IC50 ± SEM (nM) HT-29
Description: as §1, §2

[4] = test system: four human cancer cell lines (A-549, MCF-7, Panc-1, HT-29); assay: Antiproliferative MTT assay, average of four cancer cell lines (GI50); assay type: cell-based; details: for IC50: Homo sapiens, average of A-549, MCF-7, Panc-1, HT-29
Description: as §1, with “line). […]” for “line).”
as §2

BRAF^V600E = target: T1, BRAF^V600E (Mus musculus, UniProt P28028, V585E); assay: BRAF^V600E inhibitory assay (V600E mutant BRAF kinase assay); assay type: biochemical; details: read-out: BRAF^V600E inhibition IC50 ± SEM
T1 construct: Mouse full-length GST-tagged BRAF^V600E (7.5 ng, Invitrogen, PV3849); GST; purchased Invitrogen PV3849
Description: Mouse full-length GST-tagged BRAF^V600E (7.5 ng, Invitrogen, PV3849) was pre-incubated with drug (1 µL) and assay dilution buffer (4 µL) for 60 min at 25 °C. In assay dilution buffer, a solution (5 µL) containing MgCl2 (30 mM), ATP (200 µM), recombinant human full length (200 ng) […] N-terminal His-tagged MEK1 (Invitrogen) was added to start the assay, subsequent to incubation for 25 min at 25 °C. The assay was stopped using 5X protein denaturing buffer (LDS) solution (5 µL). To further denature the protein, heat (70° C) was applied for 5 min. […] 10 µL of each reaction was loaded into the precast plates and electrophoresis was allowed to proceed. After completion of electrophoresis, the front part of the precast gel plate (holding hot ATP) was cut and afterwards cast-off. The dried gel was developed using a phosphor screen. […] To study the effect of compounds on cell-based pERK1/2 activity in cancer cells, commercially available ELISA kits (Invitrogen) were used according to manufacturer’s instructions.

T1 sequence (P28028 whole entry V585E): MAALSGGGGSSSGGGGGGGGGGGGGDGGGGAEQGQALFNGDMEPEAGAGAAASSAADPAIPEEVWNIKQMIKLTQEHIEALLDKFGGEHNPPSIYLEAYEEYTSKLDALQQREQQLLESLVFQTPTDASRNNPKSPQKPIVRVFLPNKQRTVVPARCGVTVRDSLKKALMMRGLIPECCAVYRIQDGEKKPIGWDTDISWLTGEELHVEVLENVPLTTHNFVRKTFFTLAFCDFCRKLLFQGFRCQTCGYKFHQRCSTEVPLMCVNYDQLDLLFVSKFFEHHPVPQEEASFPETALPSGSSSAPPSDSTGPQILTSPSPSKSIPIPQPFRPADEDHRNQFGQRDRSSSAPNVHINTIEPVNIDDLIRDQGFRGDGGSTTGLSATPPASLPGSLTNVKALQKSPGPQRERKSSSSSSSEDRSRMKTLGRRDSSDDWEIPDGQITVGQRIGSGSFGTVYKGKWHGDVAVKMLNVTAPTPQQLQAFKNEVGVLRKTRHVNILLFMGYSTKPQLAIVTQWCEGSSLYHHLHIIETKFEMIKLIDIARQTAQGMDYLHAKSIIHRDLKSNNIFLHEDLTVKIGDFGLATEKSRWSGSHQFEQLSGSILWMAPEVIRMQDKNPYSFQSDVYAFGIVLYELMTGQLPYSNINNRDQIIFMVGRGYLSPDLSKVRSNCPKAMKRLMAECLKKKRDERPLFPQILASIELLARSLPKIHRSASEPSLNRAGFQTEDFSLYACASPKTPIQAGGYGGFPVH

IC50 [1] [nM] | IC50 [2] [nM] | IC50 [3] [nM] | IC50 [4] [nM] | IC50 (BRAF^V600E) [nM] | melting point [°C] | fold less potent than compound 5j (GI50) ([4]; ratio of GI50 values) [fold] | SMILES
1800 ± 200 | 2100 ± 200 | 2100 ± 200 | 1850 | 148 ± 12 | 350 to 352 |  | COc1cccc(NC(=S)Nc2c[nH]c(=O)[nH]c2=O)c1 [Compound 3c, 1-(2,4-Dioxo-1,2,3,4-tetrahydropyrimidin-5-yl)-3-(3-methoxyphenyl)thiourea]
1200 ± 100 | 1400 ± 100 | 1400 ± 100 | 1300 | 93 ± 8 |  | 1.2 | CCOC(=O)/C=C1\S/C(=N\c2c[nH]c(=O)[nH]c2=O)N(c2ccc(C)cc2)C1=O [Compound 5b, (Z)-Ethyl-2-((Z)-2-((2,4-dioxo-1,2,3,4-tetrahydropyrimidin-5-yl)imino)-4-oxo-3-(p-tolyl)thiazolidin-5-ylidene)acetate]
1500 ± 100 | 1900 ± 200 | 1800 ± 100 | 1700 | 107 ± 10 | 330 to 332 |  | CCOC(=O)/C=C1\S/C(=N\c2c[nH]c(=O)[nH]c2=O)N(c2cccc(OC)c2)C1=O [Compound 5c, (Z)-Ethyl-2-((Z)-2-((2,4-dioxo-1,2,3,4-tetrahydropyrimidin-5-yl)imino)-3-(3-methoxyphenyl)-4-oxo-thiazolidin-5-ylidene)acetate]
1400 ± 100 | 1800 ± 100 | 1700 ± 100 | 1650 | 137 ± 12 | 308 to 310 |  | COC(=O)/C=C1\S/C(=N\c2c[nH]c(=O)[nH]c2=O)N(c2ccc(C)cc2)C1=O [Compound 5h, (Z)-Methyl-2-((Z)-2-((2,4-dioxo-1,2,3,4-tetrahydropyrimidin-5-yl)imino)-4-oxo-3-(p-tolyl)-thiazolidin-5-ylidene)acetate]
1300 ± 100 | 1500 ± 100 | 1600 ± 100 | 1350 | 122 ± 12 | 322 to 324 |  | COC(=O)/C=C1\S/C(=N\c2c[nH]c(=O)[nH]c2=O)N(c2cccc(OC)c2)C1=O [Compound 5i, (Z)-Methyl-2-((Z)-2-((2,4-dioxo-1,2,3,4-tetrahydropyrimidin-5-yl)imino)-3-(3-methoxyphenyl)-4-oxothiazolidin-5-ylidene)acetate]
1100 ± 100 | 1200 ± 100 | 1200 ± 100 | 1100 | 115 ± 12 | 306 to 308 |  | COC(=O)/C=C1\S/C(=N\c2c[nH]c(=O)[nH]c2=O)N(Cc2ccccc2)C1=O [Compound 5j, (Z)-Methyl-2-((Z)-3-benzyl-2-((2,4-dioxo-1,2,3,4-tetrahydropyrimidin-5-yl)imino)-4-oxothiazolidin-5-ylidene)acetate]
